Laboratory results taken from US20010049373A1, “Materials and methods for killing nematodes and nematode eggs” (priority 2000, published 2001).

Key:
Format in all cases: in vivo
[1] = test system: C. elegans; assay: C. elegans nematode activity assay, 2-fold dilutions from 140 μM, visual evaluation at Day 4 (Example 3); design: key: Dead: only stiff L1s (no movement); Dead (L4): worms are dead, but at a later larval stage; majority of worms are L1 (based on size); majority of worms are L2 (based on size); majority of worms are L3 (based on size); majority of worms are L4 (based on size); AD: majority of worms are adult; #AD: 5 adult worms or less; B!: sterile (0-25 progeny); B: low broodsize (25-100 progeny); ˜B: moderate broodsize (100-250 progeny); <: reduced broodsize (250-500 progeny); OK: no effect (˜1000+ progeny)
[2] = test system: Caenorhabditis elegans; assay: HTS runs (initial and follow-up): mOD, % Run and visual score (Table 3); design: key to Initial HTS Run Visual Score / Follow-up HTS Run Visual Score: Dead: only stiff L1s (no movement); Dead (L4): worms are dead, but at a later larval stage; majority of worms are L1 (based on size); majority of worms are L2 (based on size); majority of worms are L3 (based on size); majority of worms are L4 (based on size); AD: majority of worms are adult; #AD: 5 adult worms or less; B!: sterile (0-25 progeny); B: low broodsize (25-100 progeny); ˜B: moderate broodsize (100-250 progeny); <: reduced broodsize (250-500 progeny); OK: no effect (˜1000+ progeny)
Description: The nematicidal activity of anthelmintic Compositions 48-118 were determined in accordance with the procedure outlined in Example 2.

[3] = test system: Caenorhabditis elegans; assay: C. elegans L1 larvae dose-response, 5 day visual viability score (Examples 2 and 7); design: key: Dead: only stiff L1s (no movement); Dead (L4): worms are dead, but at a later larval stage; majority of worms are L1 (based on size); majority of worms are L2 (based on size); majority of worms are L3 (based on size); majority of worms are L4 (based on size); AD: majority of worms are adult; #AD: 5 adult worms or less; B!: sterile (0-25 progeny); B: low broodsize (25-100 progeny); ˜B: moderate broodsize (100-250 progeny); <: reduced broodsize (250-500 progeny); OK: no effect (˜1000+ progeny); details: day 5, Table 3; for 5 Day Visual Score V6: 0.3 μM (procedure of Example 2); for 5 Day Visual Score V5: 0.9 μM (procedure of Example 2); for 5 Day Visual Score V4: 2.6 μM (procedure of Example 2); for 5 Day Visual Score V3: 7.8 μM (procedure of Example 2); for 5 Day Visual Score V2: 23.3 μM (procedure of Example 2); for 5 Day Visual Score V1: 70 μM (procedure of Example 2)
Summary of the method: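 Twenty L1 larvae per well in NGM with E. coli HB101 were exposed to six 3-fold dilutions from 70 μM to 0.3 μM, 1.4% DMSO final, at 20° C. Day-5 viability was scored visually under a dissecting microscope by developmental stage, adult count and brood size.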

SMILES | visual evaluation of viability ([1]; 1.09 μM) | visual evaluation of viability ([1]; 2.2 μM) | visual evaluation of viability ([1]; 4.4 μM) | visual evaluation of viability ([1]; 8.8 μM) | visual evaluation of viability ([1]; 17.5 μM) | visual evaluation of viability ([1]; 35 μM) | visual evaluation of viability ([1]; 70 μM) | visual evaluation of viability ([1]; 140 μM) | Follow-up HTS Run % Run [2] [%] | Follow-up HTS Run Visual Score [2] | Follow-up HTS Run mOD [2] [mOD] | Initial HTS Run % Run [2] [%] | Initial HTS Run Visual Score [2] | Initial HTS Run mOD [2] [mOD] | 5 Day Visual Score V6 [3] | 5 Day Visual Score V5 [3] | 5 Day Visual Score V4 [3] | 5 Day Visual Score V3 [3] | 5 Day Visual Score V2 [3] | 5 Day Visual Score V1 [3]
Cc1ccc2c(Cl)cc(Cl)c(O)c2n1 [AKC 141] | OK (no effect (˜1000+ progeny)) | OK (no effect (˜1000+ progeny)) | OK (no effect (˜1000+ progeny)) | OK (no effect (˜1000+ progeny)) | < (reduced broodsize (250-500 progeny)) | L1 | L1 | L1 | – | – | – | – | – | – | – | – | – | – | – | –
NCc1ccc(-c2ccccc2)cc1 [AKC 138] | OK (no effect (˜1000+ progeny)) | OK (no effect (˜1000+ progeny)) | OK (no effect (˜1000+ progeny)) | ˜B (moderate broodsize (100-250 progeny)) | L2 | L1 | L1 | L1 | – | – | – | – | – | – | – | – | – | – | – | –
O=C(NCC1CCN(C(=O)NCCC(c2ccccc2)c2ccccc2)CC1)c1ccc(F)cc1F [AKC 117] | OK (no effect (˜1000+ progeny)) | OK (no effect (˜1000+ progeny)) | < (reduced broodsize (250-500 progeny)) | B (low broodsize (25-100 progeny)) | B! (sterile (0-25 progeny)) | L3 | – | – | – | – | – | – | – | – | – | – | – | – | – | –
O=C(NCC1CCN(C(=O)NCCC(c2ccccc2)c2ccccc2)CC1)c1cc(F)c(F)cc1F [AKC 116] | OK (no effect (˜1000+ progeny)) | OK (no effect (˜1000+ progeny)) | OK (no effect (˜1000+ progeny)) | B (low broodsize (25-100 progeny)) | B! (sterile (0-25 progeny)) | L3 | – | – | – | – | – | – | – | – | – | – | – | – | – | –
CN(c1cc(Oc2ccc(-c3ccccc3)cc2)ncn1)C1CCCCC1 [AKC 363] | – | – | – | – | – | – | – | – | 122 | Dead | 165 | 141 | Dead | 275 | OK (no effect (˜1000+ progeny)) | OK (no effect (˜1000+ progeny)) | OK (no effect (˜1000+ progeny)) | ˜B (moderate broodsize (100-250 progeny)) | < (reduced broodsize (250-500 progeny)) | Dead
O=C(NCC1CCN(C(=O)NCCC(c2ccccc2)c2ccccc2)CC1)c1cc(F)cc(F)c1 [AKC 118] | OK (no effect (˜1000+ progeny)) | OK (no effect (˜1000+ progeny)) | ˜B (moderate broodsize (100-250 progeny)) | B (low broodsize (25-100 progeny)) | L4/AD/B! | L3 | – | L2 | – | – | – | – | – | – | – | – | – | – | – | –
CN(Cc1ccccc1)c1cc(Oc2cccc(F)c2)ncn1 [AKC 344] | – | – | – | – | – | – | – | – | 119 | – | 161 | 131 | L2 | 256 | OK (no effect (˜1000+ progeny)) | OK (no effect (˜1000+ progeny)) | OK (no effect (˜1000+ progeny)) | – | Dead | Dead
CCN(C)c1cc(Oc2ccc3ccccc3c2)ncn1 [AKC 350] | – | – | – | – | – | – | – | – | 101 | Dead | 136 | 126 | Dead | 245 | OK (no effect (˜1000+ progeny)) | OK (no effect (˜1000+ progeny)) | OK (no effect (˜1000+ progeny)) | – | L1 | L1
C#Cc1cccc(N(CC(=O)Nc2ccc(S(N)(=O)=O)cc2)Cc2cccs2)c1 [AKC 394] | – | – | – | – | – | – | – | – | 111 | Dead | 150 | 135 | Dead | 264 | < (reduced broodsize (250-500 progeny)) | OK (no effect (˜1000+ progeny)) | OK (no effect (˜1000+ progeny)) | – | Dead | Dead
Fc1ccc(Oc2cc(NCc3cccc(C(F)(F)F)c3)ncn2)cc1 [AKC 380] | – | – | – | – | – | – | – | – | 102 | L4/AD/B! | 138 | 129 | Dead | 251 | OK (no effect (˜1000+ progeny)) | OK (no effect (˜1000+ progeny)) | OK (no effect (˜1000+ progeny)) | OK (no effect (˜1000+ progeny)) | – | L1
FC(F)(F)c1ccc(CNc2cc(Oc3ccccc3Cl)ncn2)cc1 [AKC 360] | – | – | – | – | – | – | – | – | 112 | L4/AD/B! | 151 | 139 | 1AD/B!-No P | 272 | OK (no effect (˜1000+ progeny)) | OK (no effect (˜1000+ progeny)) | OK (no effect (˜1000+ progeny)) | OK (no effect (˜1000+ progeny)) | Dead | Dead
CC(C)(C)OC(=O)N1CCN(c2cc(Oc3ccc(F)cc3)ncn2)CC1 [AKC 373] | – | – | – | – | – | – | – | – | 83 | B (low broodsize (25-100 progeny)) | 112 | 132 | – | 257 | OK (no effect (˜1000+ progeny)) | OK (no effect (˜1000+ progeny)) | OK (no effect (˜1000+ progeny)) | – | – | L4
CC(CCc1ccccc1)Nc1cc(Oc2ccc(-c3ccccc3)cc2)ncn1 (centres unmarked) [AKC 149] | – | – | – | – | – | – | – | – | 100 | Dead | 135 | 133 | Dead | 259 | < (reduced broodsize (250-500 progeny)) | < (reduced broodsize (250-500 progeny)) | – | Dead | Dead | Dead
